This note sets out measurements from PMC8794153, “Access to highly specialized growth substrates and production of epithelial immunomodulatory metabolites determine survival of Haemophilus influenzae in human airway epithelial cells” (PLoS Pathogens, 2022).

Assay [1] deals with LldD L-lactate dehydrogenase. The following applies: read-out: KM_app; DCPIP 0.1 mM electron acceptor, PMS 0.25 mM, MgCl2 2 mM, phosphate pH 7.4, 37 °C.
A further assay has as its system T1, LdhA.
T1 construct: native soluble enzyme in cell-free extract of Hi2019; not purified; no tag
In words: NADH oxidation at […] nm, cell-free extract. The following applies: Tris-Cl pH 7.5, 37 °C. The format is cell-based, Haemophilus influenzae.

Regarding `C[C@H](O)C(=O)O` [L-lactate], the Km in assay [1] turned out to be 300 ± 30 µM.
`NC(=O)C1=CN([C@@H]2O[C@H](COP(=O)(O)OP(=O)(O)OC[C@H]3O[C@@H](n4cnc5c(N)ncnc54)[C@H](O)[C@@H]3O)[C@@H](O)[C@H]2O)C=CC1` [NADH]: the Km with LdhA (pyruvate co-substrate (std. 10 mM)) stood at 0.055 ± 0.003 mM.
Regarding `CC(=O)C(=O)O` [pyruvate], the Km in the assay with LdhA (NADH co-substrate) stood at 3.38 ± 0.84 mM.
